Experimental findings from patent US12636297B2, “Boronic acid derivatives and therapeutic uses thereof” (priority 2019, dated 2026) are described below.

Where two headings read alike, the source gives them in different places. Bounds are passed on as bounds.

For orientation: MIC50 means an inhibitory concentration at the 50% level, which refers to growth in some studies and to a panel of isolates in others. What is called MIC90 is the lowest concentration that inhibits either 90% of growth or 90% of the strains tested, depending on the study.

One experiment relates to P. aeruginosa. The experiment in a line: Susceptibility testing of 262 P. aeruginosa strains with meropenem MIC >2 μg/mL. It is filed as cell-based, Pseudomonas aeruginosa. Conditions: Compound 1 at 8 μg/mL; for % of susceptible organisms at breakpoints: breakpoints ≤8 μg/mL meropenem and cefepime, ≤4 μg/mL ceftolozane, ≤16 μg/mL piperacillin. The protocol: (§1) In addition, 509 Carbapenem-Resistant Enterobacteriaceae were tested with meropenem, cefepime, and ceftolozane alone and in combination with Compound 1 at 8 μg/mL. Furthermore, 262 strains of P. aeruginosa with a meropenem MIC>2 μg/mL were tested with meropenem, ceftolozane, cefepime and piperacillin alone and in combination with Compound 1 at 8 μg/mL.
262 strains of P. aeruginosa having a meropenem MIC greater than 2 μg/mL were tested with meropenem, ceftolozane, cefepime and piperacillin alone and Compound 1 at 8 μg/mL.

In experiment [1] the test system is Carbapenem-Resistant Enterobacteriaceae. The experiment in a line: MIC distribution for 509 Carbapenem-Resistant Enterobacteriaceae (FIG. 2). Type of experiment: cell-based. Particulars: Compound 1 at 8 μg/mL. On the procedure: as §1
The MIC distribution of combinations of Compound 1 with meropenem, cefepime and cetolozane alone, or with Compound 1 at 8 μg/mL for Carbapenem-Resistant Enterobacteriaceae were tested.

For experiment [2], the system named is carbapenem resistant Enterobacteriaceae (CRE). The experiment can be described thus: MIC of antibiotics with Compound 1 against panel of 510 CRE clinical isolates. Type of experiment: cell-based. Conditions: for MIC50 / MIC90: antibiotic alone. The protocol:
In this example, the antibiotics meropenem, cefepime, ceftolozane and cefiderocol, were tested in combination with Compound 1 at 4 μg/ml and 8 μg/ml against a panel of 510 clinical isolates representing various types of carbapenem resistant Enterobacteriaceae (CRE). Cefiderocol was tested at standard conditions, in […] media.

Experiment [3] concerns carbapenem resistant Acinetobacter baumannii. The experiment can be described thus: MIC of antibiotics with Compound 1 against panel of 503 carbapenem resistant Acinetobacter baumannii clinical isolates. It is filed as cell-based. Particulars: for MIC50 / MIC90: carbapenem resistant Acinetobacter baumannii (N = 503), antibiotic alone. The protocol: In another experiment, various antibiotics, meropenem, cefepime, ceftolozane and cefiderocol, were tested in combination with Compound 1 at 4 μg/ml and 8 μg/ml against the panel of 503 clinical isolates of carbapenem resistant Acinetobacter baumannii. […] Cefiderocol was tested at standard conditions, in […] media.

Experiment [4] relates to carbapenem-resistant (CR) Acinetobacter baumannii (AB). The experiment in a line: Broth microdilution MIC of β-lactams alone and with Compound 1 against carbapenem-resistant Acinetobacter baumannii clinical isolates. It is filed as cell-based. Conditions: for MIC: SUL alone; for % susceptible, [S]: breakpoints MER ≤8 μg/mL, TOL ≤4 μg/mL. The protocol: (§2) In this example the in vitro activity of Compound 1 was evaluated in combination with several β-lactams including sulbactam, meropenem, and ceftolozane against clinical isolates of carbapenem-resistant (CR) Acinetobacter baumannii (AB) and Pseudomonas aeruginosa (PA).
(In general: In broth dilution the organism is exposed to a series of concentrations in liquid medium.)

Experiment [5] relates to Pseudomonas aeruginosa (PA). The experiment in a line: Broth microdilution MIC of β-lactams alone and with Compound 1 against Pseudomonas aeruginosa clinical isolates (representative and challenge panels). Conditions: for Minimum Inhibitory Concentration Distribution, % of isolates: representative panel of PA (N = 500), without Compound 1, AVI and TAZ at 4 μg/mL; for % susceptible, [S] / MIC50 / MIC90: Compound 1, AVI, and TAZ at fixed 4 μg/mL; for % susceptible, [S]: breakpoints MER ≤8, TOL ≤4, CAZ ≤8 μg/mL; for MIC50 / MIC90: Pseudomonas aeruginosa. Type of experiment: cell-based. The protocol: as §2

[6] abbreviates: non-carbapenemase producing CRE, N = 45.
Setting [7] is: CRAB (300), Compound 1 at fixed 4 μg/mL.

For `O=C(O)c1c(F)ccc2c1OB(O)[C@@H]1C[C@H]21` [Compound 1, 5-Fluoro-2-hydroxy-1a,7b-dihydro-1H-cyclopropa[c][1,2]benzoxaborinine-4-carboxylic acid], in the experiment on P. aeruginosa (262 strains with meropenem MIC >2 μg/mL), the “Effect on proportion of susceptible P. aeruginosa” value is listed as “increased the proportion of susceptible organisms for all tested agents”. Moreover, the “Effect on potency of meropenem, cefepime and ceftolozane (MIC distribution, FIG. 2)” value in experiment [1] is “significantly increased potency of all tested antibiotics”. For the same compound, the “Effect on MIC90 of antibiotics” value in experiment [2] (Compound 1 at 4 and 8 μg/ml, 510 CRE clinical isolates) is listed as “shifted MIC90 of all antibiotics (except ceftolozane tested against metallo beta-lactamases, MBL) into susceptible range”. In experiment [3] (Compound 1 at 4 and 8 μg/ml, 503 carbapenem resistant A. baumannii isolates), the “Effect on potency of antibiotics” value is “significantly enhances the potency of meropenem and cefiderocol”.

Regarding `CC(C)(O/N=C(\C(=O)N[C@@H]1C(=O)N2C(C(=O)[O-])=C(C[N+]3(CCNC(=O)c4ccc(O)c(O)c4Cl)CCCC3)CS[C@H]12)c1csc(N)n1)C(=O)O` [DER, cefiderocol], the MIC50 in experiment [2] (CRE KPC, N = 168) was 2 µg/mL; in experiment [2] (CRE MBL, N = 145), 8 µg/mL; in experiment [2] (CRE OXA, N = 152), 1 µg/mL; in experiment [2] (setting [6]), 2 µg/mL; in experiment [3], 1 µg/mL. For the same compound, the MIC90 in experiment [2] (CRE KPC, N = 168) was 32 µg/mL; in experiment [2] (CRE MBL, N = 145), over 32 µg/mL; in experiment [2] (CRE OXA, N = 152) it was 8 µg/mL; in experiment [2] (setting [6]), 32 µg/mL; in experiment [3], 32 µg/mL.

Take `CO/N=C(\C(=O)N[C@@H]1C(=O)N2C(C(=O)[O-])=C(C[N+]3(C)CCCC3)CS[C@H]12)c1csc(N)n1` [FEP, cefepime]: the “% of susceptible organisms at breakpoints” value in the experiment with P. aeruginosa (All strains (N = 262), meropenem MIC >2 μg/mL) is listed as 20%; in the experiment on P. aeruginosa (MBL (N = 56)), 4%; with P. aeruginosa (No MBL (N = 206)), 24%. Further, the MIC50 is 32 µg/mL in experiment [2] (CRE KPC, N = 168); over 32 µg/mL in experiment [2] (CRE MBL, N = 145); over 32 µg/mL in experiment [2] (CRE OXA, N = 152); over 32 µg/mL in experiment [2] (setting [6]); over 32 µg/mL in experiment [3]. Besides, the MIC90 is over 32 µg/mL in experiment [2] (CRE KPC, N = 168); over 32 µg/mL in experiment [2] (CRE MBL, N = 145); over 32 µg/mL in experiment [2] (CRE OXA, N = 152); over 32 µg/mL in experiment [2] (setting [6]); over 32 µg/mL in experiment [3].

On to `CC1(C)[C@H](C(=O)O)N2C(=O)C[C@H]2S1(=O)=O` [SUL, sulbactam], for which, in experiment [4] (Acinetobacter baumannii), the MIC50 is over 32 µg/mL. The MIC90 in experiment [4] (Acinetobacter baumannii) is over 32 µg/mL. For the same compound, the MIC in experiment [4] (Acinetobacter baumannii, read-out: Minimum Inhibitory Concentration, AB1144 (NDM-1)) is over 64 µg/mL; in experiment [4] (Acinetobacter baumannii, read-out: Minimum Inhibitory Concentration, AB1192 (OXA-24, OXA-72)), 32 µg/mL; in experiment [4] (Acinetobacter baumannii, read-out: Minimum Inhibitory Concentration, AB1223 (OXA-72)), 4 µg/mL; in experiment [4] (Acinetobacter baumannii, read-out: Minimum Inhibitory Concentration, AB1227 (OXA-23)), 64 µg/mL; in experiment [4] (Acinetobacter baumannii, read-out: Minimum Inhibitory Concentration, AB1244 (OXA-23)) it was 64 µg/mL; in experiment [4] (Acinetobacter baumannii, read-out: Minimum Inhibitory Concentration, AB1291 (KPC-2)) it was over 64 µg/mL. The MIC in experiment [4] (Acinetobacter baumannii, read-out: Minimum Inhibitory Concentration, AB1307 (OXA-23)) is 32 µg/mL; in experiment [4] (Acinetobacter baumannii, read-out: Minimum Inhibitory Concentration, AB1333 (OXA-239)) it was 16 µg/mL; in experiment [4] (Acinetobacter baumannii, read-out: Minimum Inhibitory Concentration, AB1358 (NDM-1)), over 64 µg/mL; in experiment [4] (Acinetobacter baumannii, read-out: Minimum Inhibitory Concentration, AB1359 (NDM-1)), over 64 µg/mL.

In the case of `Cn1c(N)c(NC(=O)NCCN)c[n+]1CC1=C(C(=O)O)N2C(=O)[C@@H](NC(=O)/C(=N\OC(C)(C)C(=O)[O-])c3nsc(N)n3)[C@H]2SC1` [TOL, ceftolozane], the “% susceptible, [S]” value is recorded as “(0.0) %” in experiment [4] (AB CP (100), defined carbapenemases, Compound 1 at fixed 4 μg/mL); “(1.3) %” in experiment [4] (setting [7]); “(18.2) %” in experiment [5] (PA (CAZ-AVI MIC >8) (37)); “(44.0) %” in experiment [5] (PA (Challenge, 652)); “(56.2) %” in experiment [5] (PA (MER MIC >2) (612)); “(90.4) %” in experiment [5] (PA (Representative, 500)). Moreover, the “% susceptible, [S]” value in experiment [5] (PA (TOL-TAZ MIC >4) (39)) is on record as “(3.3) %”. In addition, the MIC50 was over 32 µg/mL in experiment [4] (Acinetobacter baumannii, AB CP (100), defined carbapenemases, Compound 1 at fixed 4 μg/mL, read-out: MIC50); >32/>32 μg/mL in experiment [4] (setting [7]); over 32 µg/mL in experiment [5] (PA (CAZ-AVI MIC >8) (37)); 16 µg/mL in experiment [5] (PA (Challenge, 652)); 4 µg/mL in experiment [5] (PA (MER MIC >2) (612)); 0.5 µg/mL in experiment [5] (PA (Representative, 500)). The MIC50 in experiment [5] (PA (TOL-TAZ MIC >4) (39)) is over 32 µg/mL; in experiment [2] (CRE KPC, N = 168), over 32 µg/mL; in experiment [2] (CRE MBL, N = 145) it was over 32 µg/mL; in experiment [2] (CRE OXA, N = 152), over 32 µg/mL; in experiment [2] (setting [6]), over 32 µg/mL; in experiment [3], over 32 µg/mL. Also, the MIC90 is over 32 µg/mL in experiment [4] (Acinetobacter baumannii, AB CP (100), defined carbapenemases, Compound 1 at fixed 4 μg/mL, read-out: MIC90); >32/>32 μg/mL in experiment [4] (setting [7]); over 32 µg/mL in experiment [5] (PA (CAZ-AVI MIC >8) (37)); over 32 µg/mL in experiment [5] (PA (Challenge, 652)); over 32 µg/mL in experiment [5] (PA (MER MIC >2) (612)); 4 µg/mL in experiment [5] (PA (Representative, 500)). Besides, the MIC90 in experiment [5] (PA (TOL-TAZ MIC >4) (39)) was over 32 µg/mL; in experiment [2] (CRE KPC, N = 168), over 32 µg/mL; in experiment [2] (CRE MBL, N = 145), over 32 µg/mL; in experiment [2] (CRE OXA, N = 152), over 32 µg/mL; in experiment [2] (setting [6]) it was over 32 µg/mL; in experiment [3], over 32 µg/mL. The “Minimum Inhibitory Concentration Distribution, % of isolates” value is given as 0.2% in experiment [5] (MIC 0.125 μg/mL); 2.8% in experiment [5] (MIC 0.25 μg/mL); 56.2% in experiment [5] (MIC 0.5 μg/mL); 77.4% in experiment [5] (MIC 1 μg/mL); 85.2% in experiment [5] (MIC 2 μg/mL); 90.4% in experiment [5] (MIC 4 μg/mL). Moreover, the “Minimum Inhibitory Concentration Distribution, % of isolates” value in experiment [5] (MIC 8 μg/mL) was determined as 92.2%; in experiment [5] (MIC 16 μg/mL), 93.0%; in experiment [5] (MIC 32 μg/mL), 93.2%; in experiment [5] (MIC >32 μg/mL), 100.0%; in experiment [5] (MIC ≤0.06 μg/mL) it was 0.2%.
